Reference: patent US9144239B2, “Macrocyclic picolinamides as fungicides” (DOW AGROSCIENCES LLC, priority 2012, dated 2015)
Read-outs that look alike come from different tables or passages of the source.

Key:
Assay type in all cases: in vivo
[1] = system: Mycosphaerella graminicola; anamorph: Septoria tritici; assay: Fungicidal activity: leaf blotch of wheat (SEPTTR), wheat seedlings; settings: Zymoseptoria tritici, 100 ppm, wheat
Method in brief: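 Percent control derives from disease severity on treated versus untreated first leaves, rated 0–100% when symptoms were fully expressed on untreated plants. Yuma seedlings were inoculated with S. tritici spores either before or after spraying to run-off. The spray was acetone solution diluted 1:9 in water with 110 ppm Triton X-100. Infection took place in 100% RH dew chambers, then a 20 °C greenhouse.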

[2] = system: Puccinia triticina; synonym: Puccinia recondita f. sp. tritici; assay: Fungicidal activity: wheat brown rust (PUCCRT), wheat seedlings; settings: 100 ppm, wheat
Method in brief: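 Wheat (Yuma) seedlings at first-leaf stage, inoculated with Puccinia triticina spores before or after treatment, held overnight in dark dew room at 22° C, 100% RH, then greenhouse at 24° C. Acetone solutions diluted with nine volumes water containing 110 ppm Triton X-100, sprayed to run-off. Percent disease control derived from severity (0–100%) relative to untreated plants.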

Leptosphaeria nodorum = assay: Fungicidal activity: wheat glume blotch (LEPTNO); settings: Parastagonospora nodorum, 24 h, 1 Day Protectant, read-out: Disease Control LEPTNO 1 DP
Protocol: Technical grades of materials were dissolved in acetone, which were then mixed with nine volumes of water containing 110 ppm Triton X-100. The fungicide solutions were applied onto wheat seedlings using an automated booth sprayer to run-off. All sprayed plants were allowed to air dry prior to further handling. Wheat plants (variety Yuma) were grown from seed in a greenhouse in 50% mineral soil/50% soil-less Metro mix until the first leaf was fully emerged, with 7-10 seedlings per pot. These plants were inoculated with an aqueous spore suspension of Septoria tritici either prior to or after fungicide treatments. After inoculation the plants were kept in 100% relative humidity (one day in a dark dew chamber followed by two to three days in a lighted dew chamber at 20° C.) to permit spores to germinate and infect the leaf. The plants were then transferred to a greenhouse set at 20° C. for disease to develop. When disease symptoms were fully expressed on the 1st leaves of untreated plants, infection levels were assessed on a scale of 0 to 100 percent disease severity. Percent disease control was calculated using the ratio of disease severity on treated plants relative to untreated plants. Evaluation of Fungicidal Activity: Wheat Glume Blotch (Leptosphaeria nodorum; Bayer Code […]) Wheat plants (variety Yuma) were grown from seed in a greenhouse in 50% mineral soil/50% soil-less Metro mix until the first leaf was fully emerged, with 7-10 seedlings per pot. These plants were inoculated with an aqueous spore suspension of Leptosphaeria nodorum 24 hr after fungicide treatments. After inoculation the plants were kept in 100% relative humidity (one day in a dark dew chamber followed by two days in a lighted dew chamber at 20° C.) to permit spores to germinate and infect the leaf. The plants were then transferred to a greenhouse set at 20° C. for disease to develop. Fungicide formulation, application and disease assessment followed the procedures as described in the Example A.

Cercospora beticola = assay: Fungicidal activity: leaf spot of sugar beets (CERCBE); settings: 24 h, 1 Day Protectant, sugar beet, read-out: Disease Control CERCBE 1DP
Protocol: Technical grades of materials were dissolved in acetone, which were then mixed with nine volumes of water containing 110 ppm Triton X-100. The fungicide solutions were applied onto wheat seedlings using an automated booth sprayer to run-off. All sprayed plants were allowed to air dry prior to further handling. Wheat plants (variety Yuma) were grown from seed in a greenhouse in 50% mineral soil/50% soil-less Metro mix until the first leaf was fully emerged, with 7-10 seedlings per pot. These plants were inoculated with an aqueous spore suspension of Septoria tritici either prior to or after fungicide treatments. After inoculation the plants were kept in 100% relative humidity (one day in a dark dew chamber followed by two to three days in a lighted dew chamber at 20° C.) to permit spores to germinate and infect the leaf. The plants were then transferred to a greenhouse set at 20° C. for disease to develop. When disease symptoms were fully expressed on the 1st leaves of untreated plants, infection levels were assessed on a scale of 0 to 100 percent disease severity. Percent disease control was calculated using the ratio of disease severity on treated plants relative to untreated plants. Evaluation of Fungicidal Activity: Leaf Spot of Sugar Beets (Cercospora beticola; Bayer Code CERCBE) Sugar beet plants (variety HH88) were grown in soil-less Metro mix and trimmed regularly to maintain a uniform plant size prior to test. Plants were inoculated with a spore suspension 24 hr after fungicide treatments. Inoculated plants were kept in a dew chamber at 22° C. for 48 hr then incubated in a greenhouse set at 24° C. under a clear plastic hood with bottom ventilation until disease symptoms were fully expressed. Fungicide formulation, application and disease assessment on the sprayed leaves followed the procedures as described in the Example A.

[3] = system: Blumeria graminis f.sp. hordei; synonym: Erysiphe graminis f.sp. hordei; assay: Fungicidal activity: barley powdery mildew (ERYSGH); settings: 24 h, 1 Day Protectant, read-out: Disease Control ERYSGH 1DP
Protocol: Technical grades of materials were dissolved in acetone, which were then mixed with nine volumes of water containing 110 ppm Triton X-100. The fungicide solutions were applied onto wheat seedlings using an automated booth sprayer to run-off. All sprayed plants were allowed to air dry prior to further handling. Wheat plants (variety Yuma) were grown from seed in a greenhouse in 50% mineral soil/50% soil-less Metro mix until the first leaf was fully emerged, with 7-10 seedlings per pot. These plants were inoculated with an aqueous spore suspension of Septoria tritici either prior to or after fungicide treatments. After inoculation the plants were kept in 100% relative humidity (one day in a dark dew chamber followed by two to three days in a lighted dew chamber at 20° C.) to permit spores to germinate and infect the leaf. The plants were then transferred to a greenhouse set at 20° C. for disease to develop. When disease symptoms were fully expressed on the 1st leaves of untreated plants, infection levels were assessed on a scale of 0 to 100 percent disease severity. Percent disease control was calculated using the ratio of disease severity on treated plants relative to untreated plants. Evaluation of Fungicidal Activity: Barley Powdery Mildew (Blumeria graminis f.sp. hordei; Synonym: Erysiphe graminis f.sp. hordei; Bayer Code […]) Barley seedlings (variety Harrington) were propagated in soil-less Metro mix, with each pot having 8 to 12 plants, and used in the test when first leaf was fully emerged. Test plants were inoculated by dusting with infected stock plants 24 hr after fungicide treatments. After inoculation the plants were kept in a greenhouse set at 20° C. for disease to develop. Fungicide formulation, application and disease assessment on the sprayed leaves followed the procedures as described in the Example A.

Venturia inaequalis = assay: Fungicidal activity: apple scab (VENTIN); settings: 24 h, 1 Day Protectant, read-out: Disease Control VENTIN 1 DP
Protocol: Technical grades of materials were dissolved in acetone, which were then mixed with nine volumes of water containing 110 ppm Triton X-100. The fungicide solutions were applied onto wheat seedlings using an automated booth sprayer to run-off. All sprayed plants were allowed to air dry prior to further handling. Wheat plants (variety Yuma) were grown from seed in a greenhouse in 50% mineral soil/50% soil-less Metro mix until the first leaf was fully emerged, with 7-10 seedlings per pot. These plants were inoculated with an aqueous spore suspension of Septoria tritici either prior to or after fungicide treatments. After inoculation the plants were kept in 100% relative humidity (one day in a dark dew chamber followed by two to three days in a lighted dew chamber at 20° C.) to permit spores to germinate and infect the leaf. The plants were then transferred to a greenhouse set at 20° C. for disease to develop. When disease symptoms were fully expressed on the 1st leaves of untreated plants, infection levels were assessed on a scale of 0 to 100 percent disease severity. Percent disease control was calculated using the ratio of disease severity on treated plants relative to untreated plants. Evaluation of Fungicidal Activity: Apple Scab (Venturia inaequalis; Bayer Code […]) Apple seedlings (variety McIntosh) were grown in soil-less Metro mix, with one plant per pot. Seedlings with two expanding young leaves at the top (older leaves at bottom of the plants were trimmed) were used in the test. Plants were inoculated with a spore suspension of Venturia inaequalis 24 hr after fungicide treatment and kept in a 22° C. dew chamber with 100% RH for 48 hr, and then moved to a greenhouse set at 20° C. for disease to develop. Fungicide formulation, application and disease assessment on the sprayed leaves followed the procedures as described in the Example A.

Uncinula necator = assay: Fungicidal activity: grape powdery mildew (UNCINE); settings: Erysiphe necator, 24 h, 1 Day Protectant, read-out: Disease Control UNCINE 1 DP
Protocol: Technical grades of materials were dissolved in acetone, which were then mixed with nine volumes of water containing 110 ppm Triton X-100. The fungicide solutions were applied onto wheat seedlings using an automated booth sprayer to run-off. All sprayed plants were allowed to air dry prior to further handling. Wheat plants (variety Yuma) were grown from seed in a greenhouse in 50% mineral soil/50% soil-less Metro mix until the first leaf was fully emerged, with 7-10 seedlings per pot. These plants were inoculated with an aqueous spore suspension of Septoria tritici either prior to or after fungicide treatments. After inoculation the plants were kept in 100% relative humidity (one day in a dark dew chamber followed by two to three days in a lighted dew chamber at 20° C.) to permit spores to germinate and infect the leaf. The plants were then transferred to a greenhouse set at 20° C. for disease to develop. When disease symptoms were fully expressed on the 1st leaves of untreated plants, infection levels were assessed on a scale of 0 to 100 percent disease severity. Percent disease control was calculated using the ratio of disease severity on treated plants relative to untreated plants. Evaluation of Fungicidal Activity: Grape Powdery Mildew (Uncinula necator; Bayer Code […]) Grape seedlings (variety Carignane) were grown in soil-less Metro mix, with one plant per pot, and used in the test when approximately one month old. Plants were inoculated 24 hr after fungicide treatment by shaking spores from infected leaves over test plants. Plants were maintained in a greenhouse set at 20° C. until disease was fully developed. Fungicide formulation, application and disease assessment on the sprayed leaves followed the procedures as described in the Example A.

[4] = system: Puccinia triticina; synonym: Puccinia recondita f. sp. tritici; assay: Fungicide mobility (dropline mobility test): wheat brown rust (PUCCRT); settings: 1 ug/leaf
Protocol: Evaluation of Fungicide Mobility: Wheat Brown Rust (Puccinia triticina; Synonym: Puccinia recondita f. sp. tritici; Bayer Code PUCCRT) “Yuma” wheat seedlings were used in the test. One mg of compound was dissolved in 9 μl of EC blank (emulsifiable concentrate) and 500 μl of acetone. Acetone was then evaporated overnight by leaving the vial open in a fume hood. Two milliliters of water containing 110 ppm Triton X-100 was added to each vial to prepare application solutions. A 2 μl drop of formulated material was applied to a marked line on the adaxial surface 5 cm from the leaf tip of the primary leaves. The primary leaves were kept in a horizontal position. Each treatment had 6 replicates. Plants were inoculated with PUCCRT 1-day after (1DPM) or 3-day prior to (3DCM) compound applications. When rust was fully expressed on primary leaves on control plants, the zone of treated leaves that was disease-free in the acropetal direction was measured with a ruler and converted to percent of the distance from marked line to leaf tip.

[5] = system: Magnaporthe grisea; anamorph: Pyricularia oryzae; assay: whole plant or invertebrate; settings: 24 h, read-out: Disease Control PYRIOR 1 DP
[6] = 24 h, 1 Day Protectant, read-out: Disease Control SEPTTR 1DP
[7] = 72 h, 3 Day Curative, read-out: Disease Control SEPTTR 3DC
[8] = 24 h, 1 Day Protectant, read-out: Disease Control PUCCRT 1DP
[9] = 72 h, 3 Day Curative, read-out: Disease Control PUCCRT 3DC

| Structure (SMILES) | pest or weed control at 100 ppm [1, 6] | pest or weed control at 100 ppm [1, 7] | pest or weed control at 100 ppm [2, 8] | pest or weed control at 100 ppm [2, 9] | pest or weed control at 100 ppm (Leptosphaeria nodorum) | pest or weed control at 100 ppm (Cercospora beticola) | pest or weed control at 100 ppm [3] | pest or weed control at 100 ppm (Venturia inaequalis) | pest or weed control at 100 ppm (Uncinula necator) | pest or weed control at 1 µg/leaf ([4]; 24 h, 1 Day Protectant Mobility, read-out: Dropline Mobility Test PUCCRT 1DPM) | pest or weed control at 1 µg/leaf ([4]; 72 h, 3 Day Curative Mobility, read-out: Dropline Mobility Test PUCCRT 3DCM) | pest or weed control at 100 ppm [5] |
| --- | --- | --- | --- | --- | --- | --- | --- | --- | --- | --- | --- | --- |
| COc1ccnc(C(=O)N[C@H]2COC[C@H](Oc3ccc(F)cc3)[C@@H](OCC(C)C)[C@H](C)OC2=O)c1OCOC(C)=O [Compound 228] | 80 to 100% | 80 to 100% | 80 to 100% | 80 to 100% | 80 to 100% | 0 to 80% | 0 to 80% |  |  |  |  |  |
| CCCCO[C@H]1[C@H](C)OC(=O)[C@@H](NC(=O)c2nccc(OC)c2OCOC(C)=O)COC[C@@H]1OCc1ccccc1 [Compound 34] | 80 to 100% | 80 to 100% | 80 to 100% | 80 to 100% |  |  |  | 80 to 100% | 80 to 100% | 0 to 80% | 80 to 100% |  |
| CCCCO[C@H]1COC[C@H](NC(=O)c2nccc(OC)c2OCOC(C)=O)C(=O)O[C@@H](C)[C@@H]1OC(=O)C(C)C [Compound 47] | 80 to 100% | 80 to 100% | 80 to 100% | 80 to 100% |  |  |  | 80 to 100% | 0 to 80% |  |  | 80 to 100% |
